ChEMBL document CHEMBL5365471, “Discovery of marine phidianidine-based Nrf2 activators and their potential against oxLDL- and HG-induced injury in HUVECs” (Bioorg Med Chem Lett, 2023)
Calls of active or inactive are those of the source. The calls are words filed in the database; no cut-off is given here.

How the values were obtained:
HUVEC [1] = assay: Cytoprotective activity against high glucose induced apoptosis in HUVEC treated with scambled siRNA at 10 uM measured after 24 hrs by TUNEL assay; type: functional, cell-based; settings: Homo sapiens
HUVEC [2] = assay: Cytoprotective activity against oxLDL-induced HUVEC cell damage assessed as increase in cell viability at 10 uM by SRB assay; type: functional, cell-based; settings: Homo sapiens
HUVEC [3] = assay: Cytotoxicity against HUVEC assessed as effect on cell viability by SRB assay; type: toxicity, cell-based; settings: human
HUVEC [4] = assay: Cytoprotective activity against oxLDL-induced apoptosis in HUVEC cells measured after 6 hrs by TUNEL assay; type: functional, cell-based; settings: Homo sapiens, dose 5-10 µM
HUVEC [5] = assay: Cytoprotective activity against high glucose-induced apoptosis in Nrf2-knockdown HUVEC at 10 uM measured after 24 hrs by TUNEL assay; type: functional, cell-based; settings: Homo sapiens
[6] = biological target: Keap1/Nrf2 (Homo sapiens) (UniProt Q16236+Q14145); assay: Inhibition of Keap1-Nrf2 protein-protein interaction (unknown origin) at 100 uM measured after 60 mins by FITC-betaAla-DEETGEF-OH probe based fluorescent polarization assay
Sequence of Keap1/Nrf2 (Homo sapiens) (Q14145 whole entry, looked up, one chain of several): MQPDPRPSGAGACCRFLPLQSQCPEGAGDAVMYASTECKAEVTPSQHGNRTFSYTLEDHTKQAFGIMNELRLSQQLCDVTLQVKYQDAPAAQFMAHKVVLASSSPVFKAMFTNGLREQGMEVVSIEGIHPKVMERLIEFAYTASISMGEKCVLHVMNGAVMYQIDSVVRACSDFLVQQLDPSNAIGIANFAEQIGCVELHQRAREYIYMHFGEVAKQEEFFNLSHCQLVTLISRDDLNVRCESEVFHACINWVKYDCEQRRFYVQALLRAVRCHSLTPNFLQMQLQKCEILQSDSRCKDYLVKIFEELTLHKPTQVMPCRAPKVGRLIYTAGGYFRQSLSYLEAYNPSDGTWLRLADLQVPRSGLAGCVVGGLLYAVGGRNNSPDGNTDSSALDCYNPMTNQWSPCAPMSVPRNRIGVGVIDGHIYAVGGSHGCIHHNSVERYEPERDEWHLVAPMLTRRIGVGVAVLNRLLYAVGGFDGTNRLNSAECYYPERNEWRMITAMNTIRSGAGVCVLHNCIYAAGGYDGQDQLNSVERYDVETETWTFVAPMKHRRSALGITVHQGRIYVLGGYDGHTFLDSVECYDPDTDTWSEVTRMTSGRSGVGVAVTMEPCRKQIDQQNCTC

HUVEC [7] = assay: Cytoprotective activity against oxLDL-induced apoptosis in Nrf2-knockdown HUVEC at 10 uM measured after 6 hrs by TUNEL assay; type: functional, cell-based; settings: Homo sapiens
[8] = biological target: T1, Nuclear factor erythroid 2-related factor 2 (Homo sapiens) (UniProt Q16236); assay: Induction of Nrf2/ARE activation in human Hela cells at 5 uM measured after 12 to 24 hrs by luciferase reporter gene assay relative to control; type: cell-based; settings: filed as activator, time 12-24 hrs
T1 sequence (whole entry): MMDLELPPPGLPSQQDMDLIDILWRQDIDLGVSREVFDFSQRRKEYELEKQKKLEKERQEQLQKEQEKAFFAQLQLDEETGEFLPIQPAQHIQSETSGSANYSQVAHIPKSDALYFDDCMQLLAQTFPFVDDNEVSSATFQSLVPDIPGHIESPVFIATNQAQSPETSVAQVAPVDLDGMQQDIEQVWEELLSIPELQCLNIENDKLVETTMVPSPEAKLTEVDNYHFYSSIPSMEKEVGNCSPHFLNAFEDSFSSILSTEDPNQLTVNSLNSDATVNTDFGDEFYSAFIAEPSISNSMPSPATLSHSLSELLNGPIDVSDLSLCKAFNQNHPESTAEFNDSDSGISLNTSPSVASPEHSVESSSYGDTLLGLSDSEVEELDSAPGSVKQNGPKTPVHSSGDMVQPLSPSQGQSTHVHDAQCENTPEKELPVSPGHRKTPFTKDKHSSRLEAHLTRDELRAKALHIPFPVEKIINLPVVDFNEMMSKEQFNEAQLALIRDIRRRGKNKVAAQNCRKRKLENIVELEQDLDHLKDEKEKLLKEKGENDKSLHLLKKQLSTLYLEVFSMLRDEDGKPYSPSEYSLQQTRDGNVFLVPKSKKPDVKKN

[9] = biological target: T1, Nuclear factor erythroid 2-related factor 2 (Homo sapiens); assay: Induction of Nrf2/ARE activation in human Hela cells at 1 uM measured after 12 to 24 hrs by luciferase reporter gene assay relative to control; type: cell-based; settings: filed as activator, time 12-24 hrs
HUVEC [10] = assay: Cytoprotective activity against oxLDL-induced apoptosis in HUVEC treated with scambled siRNA at 10 uM measured after 6 hrs by TUNEL assay; type: functional, cell-based; settings: Homo sapiens
HUVEC [11] = assay: Cytoprotective activity against high glucose-induced HUVEC cell damage assessed as increase in cell viability at 10 uM by SRB assay; type: functional, cell-based; settings: Homo sapiens
[12] = biological target: T1, Nuclear factor erythroid 2-related factor 2 (Homo sapiens); assay: Induction of Nrf2 nuclear translocation in oxLDL-induced HUVEC cells at 5 to 10 uM measured after 6 hrs by immunofluorescence staining analysis; type: cell-based; settings: filed as activator, dose 5-10 µM
[13] = biological target: T1, Nuclear factor erythroid 2-related factor 2 (Homo sapiens); assay: Induction of Nrf2/ARE activation in human Hela cells at 10 uM measured after 12 to 24 hrs by luciferase reporter gene assay relative to control; type: cell-based; settings: filed as activator, time 12-24 hrs
[14] = biological target: T1, Nuclear factor erythroid 2-related factor 2 (Homo sapiens); assay: Induction of Nrf2 nuclear translocation in high glucose-induced HUVEC cells at 5 to 10 uM measured after 24 hrs by immunofluorescence staining analysis; type: cell-based; settings: filed as activator, dose 5-10 µM
HUVEC [15] = assay: Cytoprotective activity against high glucose-induced apoptosis in HUVEC cells measured after 24 hrs by TUNEL assay; type: functional, cell-based; settings: Homo sapiens, dose 5-10 µM
[16] = biological target: T1, Nuclear factor erythroid 2-related factor 2 (Homo sapiens); assay: Induction of Nrf2/ARE activation in human Hela cells at 20 uM measured after 12 to 24 hrs by luciferase reporter gene assay relative to control; type: cell-based; settings: filed as activator, time 12-24 hrs

Row | inhibition [6] | fold change (FC) [8] | fold change (FC) [9] | Activity [12] | fold change (FC) [13] | Activity [14] | fold change (FC) [16] | Structure (SMILES) | Activity (HUVEC [1]) | Activity (HUVEC [2]) | Activity (HUVEC [3]) | Activity (HUVEC [4]) | Activity (HUVEC [5]) | Activity (HUVEC [7]) | Activity (HUVEC [10]) | Activity (HUVEC [11]) | Activity (HUVEC [15])
1 | inactive | 3.69 | 1.89 | Active | 7.78 | Active | 7.41 | COc1ccc(/C=C/C(=O)N2CCN(Cc3noc(Cc4c[nH]c5ccccc45)n3)CC2)cc1O | Active | Active | Non-Toxic | Dose-Dependent Effect | inactive | inactive | Active | Active | Dose-Dependent Effect
2 |  | 3.14 | 1.38 | Active | 5.88 | Active | 5.18 | N#Cc1ccc(CN2CCN(Cc3noc(Cc4c[nH]c5ccccc45)n3)CC2)cc1 |  | Active | Non-Toxic | Dose-Dependent Effect |  |  |  | Active | Dose-Dependent Effect
